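Briefly, cells in 96-well plates were exposed to five compound concentrations for 48 h, and endpoints were estimated by linear interpolation. GI50 is the concentration that inhibits growth by half.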 Activity calls are given as the source filed them. Cut-off read from the data, not from the text of the source: active = GI50 up to about 1.1 µM and inactive = higher.
Assays:
Test in all cases: NCI tumour cell line growth inhibition, 48 h
A498 = system: A498
A549 = system: A549
ACHN = system: ACHN
CAKI-1 = system: CAKI-1
CCRF-CEM = system: CCRF-CEM
COLO 205 = system: COLO 205
DU-145 = system: DU-145
EKVX = system: EKVX
HCC 2998 = system: HCC 2998
HCT-116 = system: HCT-116
HCT-15 = system: HCT-15
HL-60 = system: HL-60
HOP-62 = system: HOP-62
HOP-92 = system: HOP-92
HT-29 = system: HT-29
IGROV-1 = system: IGROV-1
K562 = system: K562
LOX IMVI = system: LOX IMVI
M14 = system: M14
MCF7 = system: MCF7
MDA-MB-231 = system: MDA-MB-231
MDA-MB-435 = system: MDA-MB-435
MDA-N = system: MDA-N
MOLT-4 = system: MOLT-4
Malme-3M = system: Malme-3M
NCI-H460 = system: NCI-H460
NCI-H522 = system: NCI-H522
NCI/ADR-RES = system: NCI/ADR-RES
OVCAR-3 = system: OVCAR-3
OVCAR-5 = system: OVCAR-5
OVCAR-8 = system: OVCAR-8
PC-3 = system: PC-3
RPMI-8226 = system: RPMI-8226
SF-268 = system: SF-268
SF-295 = system: SF-295
SK-MEL-28 = system: SK-MEL-28
SK-MEL-5 = system: SK-MEL-5
SK-OV-3 = system: SK-OV-3
SNB-19 = system: SNB-19
SR = system: SR
SW-620 = system: SW-620
T47D = system: T47D
TK-10 = system: TK-10
U-251 = system: U-251
UACC-257 = system: UACC-257
UACC-62 = system: UACC-62
UO-31 = system: UO-31
786-0 = system: 786-0
NCI-H23 = system: NCI-H23
OVCAR-4 = system: OVCAR-4
RXF 393 = system: RXF 393
SK-MEL-2 = system: SK-MEL-2
SNB-75 = system: SNB-75
KM12 = system: KM12
NCI-H226 = system: NCI-H226
SF-539 = system: SF-539
SN12C = system: SN12C

CC(NC(C#N)CC12CC3CC(CC(C3)C1)C2)c1ccccc1 (stereo unspecified)
GI50 (A498): > 100 µM (inactive) | GI50 (A549): > 100 µM (inactive) | GI50 (ACHN): 47.6 µM (inactive) | GI50 (CAKI-1): 33.3 µM (inactive) | GI50 (CCRF-CEM): 20.7 µM (inactive) | GI50 (COLO 205): 38.1 µM (inactive) | GI50 (DU-145): 41.8 µM (inactive) | GI50 (EKVX): > 100 µM (inactive) | GI50 (HCC 2998): > 100 µM (inactive) | GI50 (HCT-116): 34.8 µM (inactive) | GI50 (HCT-15): 56.8 µM | GI50 (HL-60): 18.5 µM (inactive) | GI50 (HOP-62): > 100 µM (inactive) | GI50 (HOP-92): 0.753 µM (active) | GI50 (HT-29): 31.3 µM (inactive) | GI50 (IGROV-1): 32.4 µM (inactive) | GI50 (K562): 23.1 µM (inactive) | GI50 (LOX IMVI): 17.8 µM (inactive) | GI50 (M14): 54.8 µM (inactive) | GI50 (MCF7): 48.9 µM (inactive) | GI50 (MDA-MB-231): 81.1 µM (inactive) | GI50 (MDA-MB-435): > 100 µM (inactive) | GI50 (MDA-N): > 100 µM (inactive) | GI50 (MOLT-4): 27.9 µM (inactive) | GI50 (Malme-3M): > 100 µM (inactive) | GI50 (NCI-H460): 26.5 µM (inactive) | GI50 (NCI-H522): > 100 µM (inactive) | GI50 (NCI/ADR-RES): > 100 µM (inactive) | GI50 (OVCAR-3): 13.6 µM (inactive) | GI50 (OVCAR-5): 63.8 µM (inactive) | GI50 (OVCAR-8): 60.8 µM (inactive) | GI50 (PC-3): > 100 µM (inactive) | GI50 (RPMI-8226): 15.5 µM (inactive) | GI50 (SF-268): 47.4 µM (inactive) | GI50 (SF-295): 20.6 µM (inactive) | GI50 (SK-MEL-28): > 100 µM (inactive) | GI50 (SK-MEL-5): > 100 µM (inactive) | GI50 (SK-OV-3): 59.6 µM (inactive) | GI50 (SNB-19): > 100 µM (inactive) | GI50 (SR): 28.4 µM (inactive) | GI50 (SW-620): 54.8 µM (inactive) | GI50 (T47D): 52 µM (inactive) | GI50 (TK-10): > 100 µM (inactive) | GI50 (U-251): 42.2 µM (inactive) | GI50 (UACC-257): > 100 µM (inactive) | GI50 (UACC-62): 84.3 µM (inactive) | GI50 (UO-31): 77.8 µM (inactive)

O=P(O)(Cc1ccccc1)OCC1(O)OCC(O)C(O)C1O (stereo unspecified)
GI50 (786-0): > 10 µM (inactive) | GI50 (A549): > 10 µM (inactive) | GI50 (ACHN): > 10 µM (inactive) | GI50 (CAKI-1): > 10 µM (inactive) | GI50 (COLO 205): > 10 µM (inactive) | GI50 (HOP-62): > 10 µM (inactive) | GI50 (IGROV-1): > 10 µM (inactive) | GI50 (K562): > 10 µM (inactive) | GI50 (M14): > 10 µM (inactive) | GI50 (MCF7): > 10 µM (inactive) | GI50 (MDA-MB-435): > 10 µM (inactive) | GI50 (Malme-3M): > 10 µM (inactive) | GI50 (NCI-H23): > 10 µM (inactive) | GI50 (NCI-H460): > 10 µM (inactive) | GI50 (NCI/ADR-RES): > 10 µM (inactive) | GI50 (OVCAR-4): > 10 µM (inactive) | GI50 (OVCAR-5): > 10 µM (inactive) | GI50 (RPMI-8226): > 10 µM (inactive) | GI50 (RXF 393): > 10 µM (inactive) | GI50 (SF-268): > 10 µM (inactive) | GI50 (SK-MEL-28): > 10 µM (inactive) | GI50 (SK-MEL-2): > 10 µM (inactive) | GI50 (SK-MEL-5): > 10 µM (inactive) | GI50 (SK-OV-3): > 10 µM (inactive) | GI50 (SNB-75): > 10 µM (inactive) | GI50 (SR): > 10 µM (inactive) | GI50 (SW-620): > 10 µM (inactive) | GI50 (T47D): > 10 µM (inactive) | GI50 (U-251): > 10 µM (inactive) | GI50 (UACC-62): > 10 µM (inactive)

C[N+](C)(C)CCOP(=O)(O)OP(=O)([O-])OCC1CCC(n2ccc(N)nc2=O)O1 (stereo unspecified)
GI50 (A498): > 80.9 µM (inactive) | GI50 (A549): > 100 µM (inactive) | GI50 (ACHN): > 100 µM (inactive) | GI50 (CAKI-1): > 100 µM (inactive) | GI50 (DU-145): > 100 µM (inactive) | GI50 (HCC 2998): > 100 µM (inactive) | GI50 (HCT-15): > 100 µM | GI50 (HL-60): > 100 µM (inactive) | GI50 (HOP-62): > 100 µM (inactive) | GI50 (HOP-92): > 100 µM (inactive) | GI50 (HT-29): > 100 µM (inactive) | GI50 (K562): > 100 µM (inactive) | GI50 (KM12): > 100 µM (inactive) | GI50 (LOX IMVI): > 100 µM (inactive) | GI50 (M14): > 100 µM (inactive) | GI50 (MDA-MB-231): 77.6 µM (inactive) | GI50 (MDA-MB-435): > 100 µM (inactive) | GI50 (Malme-3M): > 100 µM (inactive) | GI50 (NCI-H226): > 100 µM (inactive) | GI50 (NCI-H23): > 100 µM (inactive) | GI50 (NCI-H460): > 100 µM (inactive) | GI50 (NCI-H522): > 100 µM (inactive) | GI50 (OVCAR-3): > 100 µM (inactive) | GI50 (OVCAR-4): > 100 µM (inactive) | GI50 (OVCAR-5): > 100 µM (inactive) | GI50 (RPMI-8226): > 100 µM (inactive) | GI50 (SF-268): > 100 µM (inactive) | GI50 (SF-295): > 100 µM (inactive) | GI50 (SF-539): > 100 µM (inactive) | GI50 (SK-MEL-28): > 100 µM (inactive) | GI50 (SK-MEL-5): > 100 µM (inactive) | GI50 (SN12C): > 100 µM (inactive) | GI50 (SNB-75): > 100 µM (inactive) | GI50 (SR): > 100 µM (inactive) | GI50 (SW-620): > 100 µM (inactive) | GI50 (TK-10): > 100 µM (inactive) | GI50 (UACC-257): > 100 µM (inactive) | GI50 (UACC-62): > 100 µM (inactive) | GI50 (UO-31): > 100 µM (inactive)

Cc1ccc(S(=O)(=O)N2CCN3CCN(CCN(C)CCN4CCN(CC4)CCN(S(=O)(=O)c4ccc(C)cc4)CCN(S(=O)(=O)c4ccc(C)cc4)CCN(S(=O)(=O)c4ccc(C)cc4)CCN(S(=O)(=O)c4ccc(C)cc4)CCN4CCN(CCN(C)CCN5CCN(CC5)CCN(S(=O)(=O)c5ccc(C)cc5)CCN(S(=O)(=O)c5ccc(C)cc5)CCN(S(=O)(=O)c5ccc(C)cc5)CC2)CC4)CC3)cc1
GI50 (A549): 1.82 µM (inactive) | GI50 (ACHN): 1.79 µM (inactive) | GI50 (CCRF-CEM): 0.303 µM (active) | GI50 (EKVX): 2.33 µM (inactive) | GI50 (HCC 2998): 0.766 µM (active) | GI50 (HCT-15): 1.49 µM | GI50 (HL-60): 0.407 µM (active) | GI50 (HOP-92): 1.04 µM (active) | GI50 (HT-29): 0.208 µM (active) | GI50 (IGROV-1): 1.97 µM (inactive) | GI50 (K562): 0.248 µM (active) | GI50 (KM12): 0.541 µM (active) | GI50 (M14): 1.95 µM (inactive) | GI50 (MCF7): 1.5 µM (inactive) | GI50 (MDA-N): 1.52 µM (inactive) | GI50 (MOLT-4): 0.437 µM (active) | GI50 (NCI-H460): 0.553 µM (active) | GI50 (NCI/ADR-RES): > 100 µM (inactive) | GI50 (OVCAR-5): 1.87 µM (inactive) | GI50 (OVCAR-8): 2.1 µM (inactive) | GI50 (PC-3): 1.85 µM (inactive) | GI50 (RPMI-8226): 0.308 µM (active) | GI50 (SF-268): 1.14 µM (inactive) | GI50 (SF-539): 2.06 µM (inactive) | GI50 (SK-MEL-5): 1.63 µM (inactive) | GI50 (SNB-75): 1.35 µM (inactive) | GI50 (SR): 0.254 µM (active) | GI50 (SW-620): 1.05 µM (active) | GI50 (U-251): 0.235 µM (active) | GI50 (UACC-257): 1.77 µM (inactive)
